Experimental data taken from paper PMC12475274, “Harnessing indole scaffolds to identify small-molecule IRE1α inhibitors modulating XBP1 mRNA splicing” (Nature Communications, 2025).
Values joined by “and” are separate entries in the source; they are usually repeats but may differ in a detail not shown here. Equal entries are not always repeated.

Target: IRE1β (ERN2) (Homo sapiens, UniProt Q76MJ5)
Assay: LanthaScreen Eu kinase binding assay, IRE1β
Experimental: LanthaScreen^TM Eu kinase binding assays were conducted by SelectScreen Kinase Profiling Services (Thermo Fisher) using Alexa Fluor conjugated kinase tracer, tagged kinase protein, and Eu-labeled anti-tag antibody. The binding of the tracer to the kinase will form the tracer-kinase complex, resulting in a high FRET signal with the Eu-labeled anti-tag antibody. Displacement of the tracer by a kinase inhibitor led to a decreased FRET signal. […] Buffer A containing 50 mM HEPES pH 7.5, 0.01% BRIJ-35, 10 mM MgCl2, and 1 mM EGTA was used.
Kinase profiling was conducted by the SelectScreen Kinase Profiling Services (Thermo Fisher), using Z′-LYTE, Adapta, or LanthaScreen Eu Kinase Binding Assay for different kinases. The kinome phylogenetic tree was generated using the KinMap web portal.

Sequence of IRE1β (ERN2) (Q76MJ5 35-926): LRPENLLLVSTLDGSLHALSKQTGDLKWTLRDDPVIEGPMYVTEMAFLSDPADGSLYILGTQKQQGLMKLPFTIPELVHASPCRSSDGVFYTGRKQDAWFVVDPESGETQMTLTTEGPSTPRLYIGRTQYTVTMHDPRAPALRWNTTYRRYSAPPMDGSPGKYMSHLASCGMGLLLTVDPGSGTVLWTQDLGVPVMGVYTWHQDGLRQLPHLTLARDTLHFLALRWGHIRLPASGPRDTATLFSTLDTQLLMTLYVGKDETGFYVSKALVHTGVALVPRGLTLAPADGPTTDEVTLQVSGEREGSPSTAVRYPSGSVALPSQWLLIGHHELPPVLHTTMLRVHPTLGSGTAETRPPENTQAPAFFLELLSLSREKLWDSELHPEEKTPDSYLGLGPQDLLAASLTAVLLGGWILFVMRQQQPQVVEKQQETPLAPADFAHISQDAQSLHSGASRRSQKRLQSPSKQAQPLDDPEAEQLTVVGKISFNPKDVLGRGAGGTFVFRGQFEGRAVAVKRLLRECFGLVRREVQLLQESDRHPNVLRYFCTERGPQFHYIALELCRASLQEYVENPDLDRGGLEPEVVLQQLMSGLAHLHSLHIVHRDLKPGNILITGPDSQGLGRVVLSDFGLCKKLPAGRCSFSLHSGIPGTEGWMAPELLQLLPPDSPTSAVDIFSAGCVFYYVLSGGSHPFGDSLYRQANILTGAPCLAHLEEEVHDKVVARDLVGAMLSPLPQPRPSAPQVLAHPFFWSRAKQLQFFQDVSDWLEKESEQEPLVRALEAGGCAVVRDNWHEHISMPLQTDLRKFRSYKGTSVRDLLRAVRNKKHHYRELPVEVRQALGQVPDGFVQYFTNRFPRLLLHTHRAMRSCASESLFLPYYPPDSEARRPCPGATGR

Q: For `Cc1c(CCC(=O)O)c2cc(Br)ccc2n1C(=O)c1ccccc1` [IA107], which “IRE1β Kinase Displacement(%)” value (16700 μM as printed) is on record?
A: 87.04% and 84.54%

Q: And the IC50 (LanthaScreen Eu kinase binding assay, read-out: IRE1β (ERN2) kinase domain IC50)?
A: 1.44 µM

Q: What about the “selectivity for IRE1α over IRE1β” value (kinase binding IC50s) of the same molecule?
A: 2 fold

Q: What about the inhibition at 5 µM (kinase profiling, ERN2, LanthaScreen Binding, IA107 at 5 μM) of the same molecule?
A: 70%
